# Patent US20230113609A1, “SSTR5 ANTAGONISTS” (Kallyope, Inc., priority 2019, published 2023)
# Target: T1, human SSTR5 (Homo sapiens, UniProt P35346)
# T1 construct: expressed in transfected cells
# Experiment: Inositol phosphate accumulation assay (IP1 HTRF, antagonist mode)
# Type: cell-based
# Conditions: CHO-K1 cells co-expressing human SSTR5 with Gqi5, SST28 agonist at concentration generating 90% of full activation
# Source text: CHO-K1 cells stably co-expressing human SSTR5 with Gqi5 were developed using Jump-In technology from Thermo-Fisher. Gqi5 is the mouse G alpha q protein, that was modified to interact with Gi-coupled GPCRs as described previously (Coward, P.; Chan, S. D.; Wada, H. G.; Humphries, G. M.; Conklin, B. R. Chimeric G proteins Allow a High-Throughput Signaling Assay of Gi-Coupled Receptors. Anal Biochem. 1999, 270(2),242-248).
# Co-expression of Gqi5 with SSTR5 allowed monitoring of SSTR5 activity by following IP1 accumulation. The assay was performed in a 384-well plate format using the IP1 assay kit from Cis-Bio in an antagonist mode, i.e., pre-incubation with antagonist following by receptor activation by agonist at a concentration generating 90% of full activation. Frozen cells expressing human SSTR5 were thawed, washed, and then plated in DMEM supplemented with 10% FBS and non-essential amino acids. 40 μL of 2.5×10^5 cells/mL were plated on a Poly D-Lysine coated 384-well white plate. The cells were then incubated for 16 hr. at 37° C/5% CO2. After 16 hour the medium was removed, and 10 μL of stimulation buffer was added to the cells. Test compounds were dissolved in DMSO at concentrations 2000-fold that of the final assay concentrations. 7.5 nLcompound solutions were transferred to the cell plates using a Labcyte Echo® acoustic liquid handler. The plates were then incubated for 15 minutes at 37° C/5%CO2. After the first incubation, 5 μL of 30 nM SST28 were added to the cells, and the cells were incubated for 90 minutes at 37° C/5%CO2. 5 μL of detection buffer (prepared as described in the IP-1 kit) was added to each well, and the plates were incubated at RT for 1 hour.
# TR-FRET was measured using a ClarioSTAR plate reader, calculating the ratio between emissions at 665 nm and 620 nm (HTRF ratio). The HTRF ratio for positive (Max) and negative (Min) controls were used to normalize HTRF data and generate values for % inhibition. IC50 and maximal inhibition values were determined using a standard 4-parameter fit.
# T1 sequence (P35346 whole entry): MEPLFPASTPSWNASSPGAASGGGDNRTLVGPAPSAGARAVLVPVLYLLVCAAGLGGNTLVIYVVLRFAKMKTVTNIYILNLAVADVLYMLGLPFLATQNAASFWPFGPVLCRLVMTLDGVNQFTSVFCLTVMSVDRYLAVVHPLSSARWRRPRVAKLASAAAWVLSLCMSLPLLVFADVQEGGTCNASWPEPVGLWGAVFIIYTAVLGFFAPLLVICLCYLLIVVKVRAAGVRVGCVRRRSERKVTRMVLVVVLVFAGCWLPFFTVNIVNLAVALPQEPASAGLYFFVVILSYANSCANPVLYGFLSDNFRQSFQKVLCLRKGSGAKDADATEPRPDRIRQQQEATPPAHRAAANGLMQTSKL
row,IC50 [µM],Structure (SMILES)
1,> 5,"CCOc1cc(C(=O)OC)c(C2CC2)cc1CN1CCC2(CC1)CC(=O)N(c1ccc(C(=O)NCCCP(=O)(O)O)cc1)C2 [Example 32, (3-(4-(8-(5-cyclopropyl-2-ethoxy-4-(methoxycarbonyl)benzyl)-3-oxo-2,8-diazaspiro[4.5]decan-2-yl)benzamido)propyl)phosphonic acid]"
2,≤ 0.1,"CCOc1cc(CN2CCC3(CC2)CN(c2ccc(C(=O)NCCCS(=O)(=O)O)cc2)C(=O)O3)cc(OCC)c1-c1ccc(F)cc1 [Example 11, 3-(4-(8-((2,6-diethoxy-4′-fluoro-[1,1′-biphenyl]-4-yl)methyl)-2-oxo-1-oxa-3,8-diazaspiro[4.5]decan-3-yl)benzamido)propane-1-sulfonic acid]"
3,> 5,"CCOc1cc(C(=O)OC)c(C2CC2)cc1CN1CCC2(CC1)CN(c1ccc(C(=O)NCCCNC(N)=O)cc1)C(=O)N2 [Example 77, methyl 2-cyclopropyl-5-ethoxy-4-((2-oxo-3-(4-((3-ureidopropyl)carbamoyl)phenyl)-1,3,8-triazaspiro[4.5]decan-8-yl)methyl)benzoate]"
4,0.1 to 1,"CCOc1cc(C(=O)OC)c(C2CC2)cc1CN1CCC2(CC1)CC(=O)N(c1ccc(C(=O)NCCCS(N)(=O)=O)cc1)C2 [Example 44, methyl 2-cyclopropyl-5-ethoxy-4-((3-oxo-2-(4-((3-sulfamoylpropyl)carbamoyl)phenyl)-2,8-diazaspiro[4.5]decan-8-yl)methyl)benzoate]"
5,> 5,"CCOc1cc(C(=O)OC)c(C2CC2)cc1CN1CCC2(CC1)CN(c1ccc(C(=O)NCCCS(=O)(=O)O)cc1)C(=O)N2 [Example 78, 3-(4-(8-(5-cyclopropyl-2-ethoxy-4-(methoxycarbonyl)benzyl)-2-oxo-1,3,8-triazaspiro[4.5]decan-3-yl)benzamido)propane-1-sulfonic acid]"
6,0.1 to 1,"CCOc1cc(C(=O)OC)c(C2CC2)cc1CN1CCC2(CC1)CN(c1ccc(C(=O)NCCCS(N)(=O)=O)cc1)C(=O)N2 [Example 79, methyl 2-cyclopropyl-5-ethoxy-4-((2-oxo-3-(4-((3-sulfamoylpropyl)carbamoyl)phenyl)-1,3,8-triazaspiro[4.5]decan-8-yl)methyl)benzoate]"
7,> 5,"CCOc1cc(C(=O)OC)c(C2CC2)cc1CN1CCC2(CC1)CC(=O)N(c1ccc(C(=O)NCCC[N+](C)(C)C)cc1)C2 [Example 28, 3-(4-(8-(5-cyclopropyl-2-ethoxy-4-(methoxycarbonyl)benzyl)-3-oxo-2,8-diazaspiro[4.5]decan-2-yl)benzamido)-N,N,N-trimethylpropan-1-aminium]"
8,> 5,"CCOc1cc(C(=O)OC)c(C2CC2)cc1CN1CCC2(CC1)CC(=O)N(c1ccc(CC(=O)NCCNC(=O)NC(CO)(CO)CO)cc1)C2 [Example 14, methyl 2-cyclopropyl-4-((2-(4-(2-((2-(3-(1,3-dihydroxy-2-(hydroxymethyl)propan-2-yl)ureido)ethyl)amino)-2-oxoethyl)phenyl)-3-oxo-2,8-diazaspiro[4.5]decan-8-yl)methyl)-5-ethoxy benzoate]"
9,> 5,"CCOc1cc(CN2CCC3(CC2)CN(c2ccc(C(=O)NC[C@H](O)[C@@H](O)[C@H](O)[C@H](O)CO)cc2)C(=O)O3)cc(CO)c1-c1ccc(F)cc1 [Example 3, 4-(8-((2-ethoxy-4′-fluoro-6-(hydroxymethyl)-[1,1′-biphenyl]-4-yl)methyl)-2-oxo-1-oxa-3,8-diazaspiro[4.5]decan-3-yl)-N-((2S,3R,4R,5R)-2,3,4,5,6-pentahydroxyhexyl)benzamide]"
10,≤ 0.1,"CCOc1cc(-c2ccc(F)cc2)c(C2CC2)cc1CN1CCC2(CC1)CN(c1ccc(S(=O)(=O)NCCOCCO)cc1)C(=O)N2 [compound 85, 4-(8-((2-cyclopropyl-5-ethoxy-4′-fluoro-[1,1′-biphenyl]-4-yl)methyl)-2-oxo-1,3,8-triazaspiro[4.5]decan-3-yl)-N-(2-(2-hydroxyethoxy)ethyl)benzenesulfonamide]"
11,≤ 0.1,"CCOc1cc(-c2ccc(F)cc2)c(C2CC2)cc1CN1CCC2(CC1)CN(c1ccc(C(=O)NCCO)cc1)C(=O)N2 [Example 69, 4-(8-((2-cyclopropyl-5-ethoxy-4′-fluoro-[1,1′-biphenyl]-4-yl)methyl)-2-oxo-1,3,8-triazaspiro[4.5]decan-3-yl)-N-(2-hydroxyethyl)benzamide]"
12,≤ 0.1,"CCOc1cc(C(=O)OC)c(C2CC2)cc1CN1CCC2(CC1)CN(c1ccc(C(=O)NC[C@H](O)[C@@H](O)[C@H](O)[C@H](O)CO)cc1)C(=O)O2 [Example 54, methyl 2-cyclopropyl-5-ethoxy-4-((2-oxo-3-(4-(((2S,3R,4R,5R)-2,3,4,5,6-pentahydroxyhexyl)carbamoyl)phenyl)-1-oxa-3,8-diazaspiro[4.5]decan-8-yl)methyl)benzoate]"
13,1 to 5,"CCOc1cc(C(=O)OC)c(C2CC2)cc1CN1CCC2(CC1)CC(=O)N(c1ccc(C(=O)NCCCC(=O)NCCO)cc1)C2 [Example 15, methyl 2-cyclopropyl-5-ethoxy-4-((2-(4-((4-((2-hydroxyethyl)amino)-4-oxobutyl)carbamoyl)phenyl)-3-oxo-2,8-diazaspiro[4.5]decan-8-yl)methyl)benzoate]"
14,> 5,"CCOc1cc(C(=O)OC)c(C2CC2)cc1CN1CCC2(CC1)CC(=O)N(c1ccc(C(=O)NCCCP(C)(=O)O)cc1)C2 [Example 33, (3-(4-(8-(5-cyclopropyl-2-ethoxy-4-(methoxycarbonyl)benzyl)-3-oxo-2,8-diazaspiro[4.5]decan-2-yl)benzamido)propyl)(methyl)phosphinic acid]"
15,> 5,CCOc1cc(C(=O)OCc2oc(=O)oc2C)c(C2CC2)cc1CN1CCC2(CC1)CC(=O)N(c1ccc(C(=O)NC[C@H](O)[C@@H](O)[C@H](O)[C@H](O)CO)cc1)C2 [compound 24]
16,> 5,"CCOc1cc(C(=O)OC)c(C2CC2)cc1CN1CCC2(CC1)CC(=O)N(c1ccc(C(=O)NCCOCC[N+]34CCN(CC3)CC4)cc1)C2 [Example 45, 1-(2-(2-(4-(8-(5-cyclopropyl-2-ethoxy-4-(methoxycarbonyl)benzyl)-3-oxo-2,8-diazaspiro[4.5]decan-2-yl)benzamido)ethoxy)ethyl)-1,4-diazabicyclo[2.2.2]octan-1-ium]"
17,1 to 5,"CCOc1cc(C(=O)OC)c(C2CC2)cc1CN1CCC2(CC1)CC(=O)N(c1ccc(CCCC(=O)NC(C)(C)C(=O)NCCN(C)C)cc1)C2 [Example 17, methyl 2-cyclopropyl-4-((2-(4-(4-((1-((2-(dimethylamino)ethyl)amino)-2-methyl-1-oxopropan-2-yl)amino)-4-oxobutyl)phenyl)-3-oxo-2.8-diazaspiro[4.5]decan-8-yl)methyl)-5-ethoxybenzoate]"
18,≤ 0.1,"CCOc1cc(-c2ccc(F)cc2)c(C2CC2)cc1CN1CCC2(CC1)CN(c1ccc(C(=O)NCCCNC(N)=O)cc1)C(=O)O2 [Example 62, 4-(8-((2-cyclopropyl-5-ethoxy-4′-fluoro-[1,1′-biphenyl]-4-yl)methyl)-2-oxo-1-oxa-3,8-diazaspiro[4.5]decan-3-yl)-N-(3-ureidopropyl)benzamide]"
19,≤ 0.1,"CCOc1cc(-c2ccc(F)cc2)c(C2CC2)cc1CN1CCC2(CC1)CN(c1ccc(S(=O)(=O)NCCCNC(=N)N)cc1)C(=O)O2 [compound 80, 4-(8-((2-cyclopropyl-5-ethoxy-4′-fluoro-[1,1′-biphenyl]-4-yl)methyl)-2-oxo-1-oxa-3,8-diazaspiro [4.5]decan-3-yl)-N-(3-guanidinopropyl)benzenesulfonamide]"
20,≤ 0.1,"CCOc1cc(-c2ccc(F)cc2)c(C2CC2)cc1CN1CCC2(CC1)CN(c1ccc(C(=O)NCCOCCO)cc1)S(=O)(=O)N2 [compound 87, 4-(8-((2-cyclopropyl-5-ethoxy-4′-fluoro-[1,1′-biphenyl]-4-yl)methyl)-2,2-dioxido-2-thia-1,3,8-triazaspiro [4.5]decan-3-yl)-N-(2-(2-hydroxyethoxy)ethyl)benzamide]"
21,> 5,"CCOc1cc(C(=O)OC)c(C2CC2)cc1CN1CCC2(CC1)CC(=O)N(c1ccc(C(=O)N3C[C@H](O)[C@@H](O)C3)cc1)C2 [Example 43, methyl 2-cyclopropyl-4-((2-(4-((3S,4S)-3,4-dihydroxypyrrolidine-1-caibonyl)phenyl)-3-oxo-2,8-diazaspiro[4.5]decan-8-yl)methyl)-5-ethoxy benzoate]"

row,Structure (SMILES),IC50 [µM]
1,CCOc1cc(C(=O)OC)c(C2CC2)cc1CN1CCN(C(=O)Oc2ccc(C(=O)NC[C@H](O)[C@@H](O)[C@H](O)[C@H](O)CO)cc2)CC1 [Example 96],0.1 to 1
2,CCOc1cc(C(=O)OC)c(C2CC2)cc1CN1CCN(C(=O)Oc2cccc(C(=O)NC[C@H](O)[C@@H](O)[C@H](O)[C@H](O)CO)c2)CC1 [Example 98],0.1 to 1
